Measurements from ChEMBL document CHEMBL1137473, “Pyrazole-based cathepsin S inhibitors with improved cellular potency” (Bioorg Med Chem Lett, 2007).
Calls of active or inactive are those of the source. The calls are words filed in the database; no cut-off is given here.

Key:
[1] = biological target: T1, Legumain (Homo sapiens) (UniProt Q99538); assay: Inhibition of legumain upto 5 uM
T1 sequence (whole entry): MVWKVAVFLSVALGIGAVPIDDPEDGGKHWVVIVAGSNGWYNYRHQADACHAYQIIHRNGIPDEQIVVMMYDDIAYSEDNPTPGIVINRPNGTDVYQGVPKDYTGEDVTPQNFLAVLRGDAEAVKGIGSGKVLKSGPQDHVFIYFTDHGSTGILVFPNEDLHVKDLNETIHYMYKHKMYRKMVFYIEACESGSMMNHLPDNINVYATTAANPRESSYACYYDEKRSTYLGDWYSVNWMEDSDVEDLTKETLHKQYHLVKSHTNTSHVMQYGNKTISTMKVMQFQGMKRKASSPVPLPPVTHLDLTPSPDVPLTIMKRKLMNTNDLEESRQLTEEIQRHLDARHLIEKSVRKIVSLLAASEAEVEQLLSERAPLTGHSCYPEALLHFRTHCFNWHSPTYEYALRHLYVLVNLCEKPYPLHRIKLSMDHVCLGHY

[2] = biological target: Procathepsin L (Homo sapiens) (UniProt P07711); assay: Inhibition of cathepsin L upto 5 uM
Sequence of Procathepsin L (Homo sapiens) (P07711 114-333 limits assumed): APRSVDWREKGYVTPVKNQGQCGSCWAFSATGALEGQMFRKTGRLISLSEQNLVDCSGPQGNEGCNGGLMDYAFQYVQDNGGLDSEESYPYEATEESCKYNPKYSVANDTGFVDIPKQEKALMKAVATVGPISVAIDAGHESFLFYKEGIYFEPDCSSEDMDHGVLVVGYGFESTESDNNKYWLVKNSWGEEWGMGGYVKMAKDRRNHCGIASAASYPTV

[3] = biological target: Cathepsin B (Homo sapiens) (UniProt P07858); assay: Inhibition of cathepsin B upto 5 uM
[4] = biological target: T2, Cathepsin E (Homo sapiens) (UniProt P14091); assay: Inhibition of cathepsin E upto 5 uM
T2 sequence (whole entry): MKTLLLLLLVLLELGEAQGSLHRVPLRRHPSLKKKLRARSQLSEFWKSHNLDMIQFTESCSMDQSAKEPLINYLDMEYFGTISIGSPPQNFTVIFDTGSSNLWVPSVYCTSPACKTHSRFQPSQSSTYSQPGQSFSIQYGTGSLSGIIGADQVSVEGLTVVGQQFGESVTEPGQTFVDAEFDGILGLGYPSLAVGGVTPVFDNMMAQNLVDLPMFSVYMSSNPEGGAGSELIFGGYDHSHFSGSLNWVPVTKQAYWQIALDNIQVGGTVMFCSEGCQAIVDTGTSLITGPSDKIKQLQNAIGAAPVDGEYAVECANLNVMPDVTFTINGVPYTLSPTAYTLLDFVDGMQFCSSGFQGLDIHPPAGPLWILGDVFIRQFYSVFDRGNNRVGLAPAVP

[5] = biological target: T3, Cathepsin S (Homo sapiens, UniProt P25774); assay: Inhibition of human cathepsin S
Target sequence in this assay (P25774 whole entry): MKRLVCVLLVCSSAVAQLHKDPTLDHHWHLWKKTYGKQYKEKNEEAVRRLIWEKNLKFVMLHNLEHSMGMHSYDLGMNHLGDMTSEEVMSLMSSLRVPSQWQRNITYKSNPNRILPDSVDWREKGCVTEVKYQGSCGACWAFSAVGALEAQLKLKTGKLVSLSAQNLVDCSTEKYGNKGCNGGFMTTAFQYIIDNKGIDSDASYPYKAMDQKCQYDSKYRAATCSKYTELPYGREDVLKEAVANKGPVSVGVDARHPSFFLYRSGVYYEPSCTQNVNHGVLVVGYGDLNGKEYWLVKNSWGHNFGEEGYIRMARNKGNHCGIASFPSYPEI

[6] = biological target: T3, Cathepsin S; assay: Inhibition of cathepsin S in human JY cells by invariant chain degradation assay; assay type: cell-based
Target sequence in this assay (P25774 whole entry): as above

[7] = biological target: T3, Cathepsin S; assay: Inhibition of cathepsin S in human JY cells upto 10 uM by invariant chain degradation assay; assay type: cell-based
Target sequence in this assay (P25774 115-331 limits assumed): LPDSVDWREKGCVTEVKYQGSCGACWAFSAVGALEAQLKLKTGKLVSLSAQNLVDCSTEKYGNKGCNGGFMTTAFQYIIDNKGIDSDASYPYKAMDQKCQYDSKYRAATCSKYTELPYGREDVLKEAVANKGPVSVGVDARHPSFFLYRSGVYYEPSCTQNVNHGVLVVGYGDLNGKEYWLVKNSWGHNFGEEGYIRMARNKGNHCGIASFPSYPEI

IC50 [5] [nM]	IC50 [6] [nM]	SMILES	further results
220	–	COC(=O)c1oc2cc(F)ccc2c1C1CCN(CC(O)Cn2nc(-c3ccc(C(F)(F)F)cc3)c3c2CCN(C(C)=O)C3)CC1 (stereo unspecified)	–
100	> 10000	CS(=O)(=O)N1CCc2c(c(-c3ccc(C(F)(F)F)cc3)nn2CCCN2CCC(c3c(C(=O)O)sc4cc(F)ccc34)CC2)C1	–
180	–	CS(=O)(=O)N1CCc2c(c(-c3ccc(C(F)(F)F)cc3)nn2CC(O)CN2CCC(c3csc4cc(F)ccc34)CC2)C1 (stereo unspecified)	–
10	800	Cn1c(=O)n(C2CCN(CCCn3nc(-c4ccc(Cl)c(Cl)c4)c4c3CCN(S(C)(=O)=O)C4)CC2)c2ccccc21	–
360	–	CC(=O)N1CCc2c(c(-c3ccc(C(F)(F)F)cc3)nn2CC(O)CN2CCC(c3coc4cc(F)ccc34)CC2)C1 (stereo unspecified)	–

The remaining lines, values behind:

SMILES	IC50 [5] [nM]	IC50 [6] [nM]	further results
CS(=O)(=O)N1CCc2c(c(-c3ccc(C(F)(F)F)cc3)nn2CC(O)CN2CCC(c3c[nH]c4cnccc34)CC2)C1 (stereo unspecified)	–	–	Activity [1]: inactive; Activity [2]: inactive; Activity [3]: inactive; Activity [4]: inactive
N#Cc1ccccc1N1CCN(CC(Cn2nc(-c3ccc(I)cc3)c3c2CCN(C(N)=O)C3)OC(N)=O)CC1 (stereo unspecified)	10	800	–
COC(=O)c1sc2cc(F)ccc2c1C1CCN(CCCn2nc(-c3ccc(C(F)(F)F)cc3)c3c2CCN(S(C)(=O)=O)C3)CC1	130	1800	–
CS(=O)(=O)N1CCc2c(c(-c3ccc(Br)cc3)nn2CC(O)CN2CCC(c3c[nH]c4ncccc34)CC2)C1 (stereo unspecified)	195	–	–
CS(=O)(=O)N1CCc2c(c(-c3ccc(C(F)(F)F)cc3)nn2CC(O)CN2CCC(c3c[nH]c4ccncc34)CC2)C1 (stereo unspecified)	–	–	Activity [1]: inactive; Activity [2]: inactive; Activity [3]: inactive; Activity [4]: inactive
COC(=O)c1sc2cc(F)ccc2c1C1CCN(CC(O)Cn2nc(-c3ccc(C(F)(F)F)cc3)c3c2CCN(C(C)=O)C3)CC1 (stereo unspecified)	140	–	–
CC(=O)N1CCc2c(c(-c3ccc(C(F)(F)F)cc3)nn2CC(O)CN2CCC(c3csc4cc(F)ccc34)CC2)C1 (stereo unspecified)	290	–	–
CS(=O)(=O)N1CCc2c(c(-c3ccc(C(F)(F)F)cc3)nn2CC(O)CN2CCC(c3c[nH]c4ncccc34)CC2)C1 (stereo unspecified)	–	–	Activity [1]: inactive; Activity [2]: inactive; Activity [4]: inactive
CS(=O)(=O)N1CCc2c(c(-c3ccc(C(F)(F)F)cc3)nn2CC(O)CN2CCC(c3c[nH]c4cccnc34)CC2)C1 (stereo unspecified)	–	–	Activity [1]: inactive; Activity [2]: inactive; Activity [3]: inactive; Activity [4]: inactive
CS(=O)(=O)N1CCc2c(c(-c3ccc(C(F)(F)F)cc3)nn2CC(O)CN2CCC(N3C(=O)COc4ccccc43)CC2)C1 (stereo unspecified)	10	800	–
CS(=O)(=O)N1CCc2c(c(-c3ccc(Br)cc3)nn2CC(O)CN2CCC(c3c[nH]c4ccncc34)CC2)C1 (stereo unspecified)	77	150	–
CN(C)C(=O)c1sc2cc(F)ccc2c1C1CCN(CCCn2nc(-c3ccc(C(F)(F)F)cc3)c3c2CCN(S(C)(=O)=O)C3)CC1	370	–	–
CC(=O)N1CCc2c(c(-c3ccc(C(F)(F)F)cc3)nn2CC(O)CN2CCC(c3c[nH]c4ccc(Cl)cc34)CC2)C1 (stereo unspecified)	95	–	Activity [7]: inactive
